Assay results published in patent publication US20080299270A1, “Fat Taste Receptors and Their Methods of Use” (NESTEC S.A., priority 2005, published 2008).

Tested on: GPR40
Assay: two-bottle preference test of fat emulsions, GPR40 knockout vs normal mice
Format: in vivo, mouse
Conditions: GPR40 knockout mice compared to control mice; fat emulsion vs vehicle only, two drinking bottles
From the text: A preference ratio of 0.5 indicates indifference, above 0.5 indicates preference and below 0.5 indicates avoidance. Both preference and intake of fat are diminished in the GPR40 KO mice compared to control mice. The stars show the concentrations of lipids at which the differences of intake or preference between knockout and control mice are statistically significant. […] The fat emulsions contained corn oil, Intralipid, lauric acid or oleic acid. When compared with normal mice, the knockout animals drank less fat. […] Because mice can still detect fat in the absence of GPR40, another receptor, probably GPR120, must also play a role in fat taste signaling.

Compound	intake of fat emulsion	preference for fat emulsion
CCCCCCCC/C=C\CCCCCCCC(=O)O [oleic acid]	diminished	diminished
CCCCCCCCCCCC(=O)O [lauric acid]	diminished	diminished
